Measured values: patent publication US20240018123A1, “COMPOUND FOR INHIBITING OR DISINTEGRATING ANDROGEN RECEPTOR, AND PHARMACEUTICAL USE THEREOF” (KOREA RESEARCH INSTITUTE OF CHEMICAL TECHNOLOGY, priority 2020, published 2024)

These compounds were tested on VCaP cells (assay: Cytotoxicity assessment (Cell-titer-glo cell viability), VCaP). Settings: read-out: VCaP (CC50); VCaP cells, 6 days of treatment, Cell-titer-glo, vs DMSO.
In the case of CC1(C)C(NC(=O)c2ccc(C#CCC3CCN(CC4CCN(C(=O)CNc5ccc6nnn(C7CCC(=O)NC7=O)c(=O)c6c5)CC4)CC3)nc2)C(C)(C)C1Oc1ccc(C#N)c(Cl)c1 (stereo not shown) [Example 128, N-((1r,3r)-3-(3-chloro-4-cyanophenoxy)-2,2,4,4-tetramethylcyclobutyl)-6-(3-(1-((1-((3-(2,6-dioxopiperidin-3-yl)-4-oxo-3,4-dihydrobenzo[d][1,2,3]triazin-6-yl)glycyl)piperidin-4-yl)methyl)piperidin-4-yl)prop-1-yn-1-yl)nicotinamide], the CC50 is reported as 11 nM. For CC1(C)C(NC(=O)c2ccc(C#CCC3CCN(CC4CCN(c5ccc6nnn(C7CCC(=O)NC7=O)c(=O)c6c5)CC4)CC3)nc2)C(C)(C)C1Oc1ccc(C#N)c(Cl)c1 (stereo not shown) [Example 129, N-((1r,3r)-3-(3-chloro-4-cyanophenoxy)-2,2,4,4-tetramethylcyclobutyl)-6-(3-(1-((1-(3-(2,6-dioxopiperidin-3-yl)-4-oxo-3,4-dihydrobenzo[d][1,2,3]triazin-6-yl)piperidin-4-yl)methyl)piperidin-4-yl)prop-1-yn-1-yl)nicotinamide], the CC50 was 19.4 nM. In the case of CC1(C)C(NC(=O)c2ccc(C#CC3CCN(CC4CCN(C(=O)C5CCN(c6ccc7nnn(C8CCC(=O)NC8=O)c(=O)c7c6)CC5)CC4)CC3)nc2)C(C)(C)C1Oc1ccc(C#N)c(Cl)c1 (stereo not shown) [Example 130, N-((1r,3r)-3-(3-chloro-4-cyanophenoxy)-2,2,4,4-tetramethylcyclobutyl)-6-((1-((1-(1-(3-(2,6-dioxopiperidin-3-yl)-4-oxo-3,4-dihydrobenzo[d][1,2,3]triazin-6-yl)piperidine-4-carbonyl)piperidin-4-yl)methyl)piperidin-4-yl)ethynyl)nicotinamide], the CC50 is reported as 17 nM. CC1(C)C(NC(=O)c2ccc(C#CC3CCN(CC4CCN(C(=O)C5CCN(c6ccc7nnn(C8CCC(=O)NC8=O)c(=O)c7c6)CC5)CC4)CC3)nc2)C(C)(C)C1Oc1ccc(C#N)c(Cl)c1 (stereo not shown) [Example 131, N-((1r,3r)-3-(3-chloro-4-cyanophenoxy)-2,2,4,4-tetramethylcyclobutyl)-6-((1-((1-(1-(3-(2,6-dioxopiperidin-3-yl)-4-oxo-3,4-dihydrobenzo[d][1,2,3]triazin-6-yl)piperidine-4-carbonyl)piperidin-4-yl)methyl)piperidin-4-yl)ethynyl)nicotinamide] was tested, and the CC50 was 18.5 nM. CC1(C)C(NC(=O)c2ccc(C#CC3CCN(CC4CCN(C(=O)CNc5ccc6nnn(C7CCC(=O)NC7=O)c(=O)c6c5)CC4)CC3)nc2)C(C)(C)C1Oc1ccc(C#N)c(Cl)c1 (stereo not shown) [Example 132, N-((1r,3r)-3-(3-chloro-4-cyanophenoxy)-2,2,4,4-tetramethylcyclobutyl)-6-((1-((1-((3-(2,6-dioxopiperidin-3-yl)-4-oxo-3,4-dihydrobenzo[d][1,2,3]triazin-6-yl)glycyl)piperidin-4-yl)methyl)piperidin-4-yl)ethynyl)nicotinamide] was tested, and the CC50 was 15 nM. CC1(C)C(NC(=O)c2ccc(C#CC3CCN(CC4CCN(C(=O)COc5ccc6nnn(C7CCC(=O)NC7=O)c(=O)c6c5)CC4)CC3)nc2)C(C)(C)C1Oc1ccc(C#N)c(Cl)c1 (stereo not shown) [Example 133, N-((1r,3r)-3-(3-chloro-4-cyanophenoxy)-2,2,4,4-tetramethylcyclobutyl)-6-((1-((1-(2-((3-(2,6-dioxopiperidin-3-yl)-4-oxo-3,4-dihydrobenzo[d][1,2,3]triazin-6-yl)oxy)acetyl)piperidin-4-yl)methyl)piperidin-4-yl)ethynyl)nicotinamide] showed a CC50 of 15 nM. Compound CC1(C)[C@H](NC(=O)c2ccc(N3CCN(CCCc4cn(-c5ccc6nnn(C7CCC(=O)NC7=O)c(=O)c6c5)nn4)CC3)cc2)C(C)(C)[C@H]1Oc1ccc(C#N)c(Cl)c1 (stereo partly shown) [Example 134, N-((1r,3r)-3-(3-chloro-4-cyanophenoxy)-2,2,4,4-tetramethylcyclobutyl)-4-(4-(3-(1-(3-(2,6-dioxopiperidin-3-yl)-4-oxo-3,4-dihydrobenzo[d][1,2,3]triazin-6-yl)-1H-1,2,3-triazol-4-yl)propyl)piperazin-1-yl)benzamide] has a CC50 of 64.5 nM.
